Experiments:
GABAA α3β3γ2 = GABAA α3β3γ2 (Rattus norvegicus, UniProt P18508+P20236+P63079); assay: voltage clamp of Xenopus oocytes, potentiation of GABA-induced currents; type: cell-based
GABAA α3β2γ2 = GABAA α3β2γ2 (Rattus norvegicus, UniProt P18508+P20236+P63138); assay: as above; type: cell-based
GABAA α3β2γ2, sequence (P20236 29-493): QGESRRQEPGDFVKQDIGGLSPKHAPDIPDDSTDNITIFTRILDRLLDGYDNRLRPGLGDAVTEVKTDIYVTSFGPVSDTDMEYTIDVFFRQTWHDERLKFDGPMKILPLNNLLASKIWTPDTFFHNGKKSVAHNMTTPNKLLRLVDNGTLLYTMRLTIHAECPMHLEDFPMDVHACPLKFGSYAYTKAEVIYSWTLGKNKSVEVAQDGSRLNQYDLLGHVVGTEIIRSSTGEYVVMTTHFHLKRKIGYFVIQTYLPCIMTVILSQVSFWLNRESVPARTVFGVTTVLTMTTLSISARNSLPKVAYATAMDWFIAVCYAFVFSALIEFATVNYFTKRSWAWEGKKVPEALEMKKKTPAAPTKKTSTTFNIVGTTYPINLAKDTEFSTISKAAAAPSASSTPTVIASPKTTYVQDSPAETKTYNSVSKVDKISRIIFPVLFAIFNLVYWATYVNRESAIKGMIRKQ
GABAA α3β2γ2, sequence (P63138 26-474): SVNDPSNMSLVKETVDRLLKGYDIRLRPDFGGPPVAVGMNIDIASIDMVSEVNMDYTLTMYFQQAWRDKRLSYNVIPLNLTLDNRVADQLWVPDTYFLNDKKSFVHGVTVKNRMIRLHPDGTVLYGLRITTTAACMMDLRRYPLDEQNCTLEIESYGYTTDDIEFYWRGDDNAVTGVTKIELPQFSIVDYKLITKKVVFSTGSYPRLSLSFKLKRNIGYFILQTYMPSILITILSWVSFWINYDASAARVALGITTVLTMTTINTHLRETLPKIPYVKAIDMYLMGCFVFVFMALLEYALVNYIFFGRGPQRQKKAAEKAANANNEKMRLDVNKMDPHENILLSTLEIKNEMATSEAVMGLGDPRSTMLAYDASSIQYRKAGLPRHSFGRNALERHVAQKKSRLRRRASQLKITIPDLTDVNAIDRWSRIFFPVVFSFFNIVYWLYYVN
GABAA α3β2γ2, sequence (P18508 39-466): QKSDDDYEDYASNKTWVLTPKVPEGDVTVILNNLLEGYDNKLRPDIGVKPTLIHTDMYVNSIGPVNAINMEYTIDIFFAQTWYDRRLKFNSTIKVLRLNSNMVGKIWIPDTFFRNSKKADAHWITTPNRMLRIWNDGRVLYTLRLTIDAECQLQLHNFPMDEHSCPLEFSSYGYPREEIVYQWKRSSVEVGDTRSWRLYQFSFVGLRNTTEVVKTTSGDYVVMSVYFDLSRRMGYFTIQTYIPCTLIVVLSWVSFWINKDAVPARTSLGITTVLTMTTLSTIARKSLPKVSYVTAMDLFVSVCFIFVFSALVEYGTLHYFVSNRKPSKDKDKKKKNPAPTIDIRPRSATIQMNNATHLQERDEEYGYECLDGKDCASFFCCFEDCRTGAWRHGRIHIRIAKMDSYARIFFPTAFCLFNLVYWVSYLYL

GABAA α3β3γ2, sequence (P20236 29-493): as the sequence (P20236 29-493) above
GABAA α3β3γ2, sequence (P63079 26-473): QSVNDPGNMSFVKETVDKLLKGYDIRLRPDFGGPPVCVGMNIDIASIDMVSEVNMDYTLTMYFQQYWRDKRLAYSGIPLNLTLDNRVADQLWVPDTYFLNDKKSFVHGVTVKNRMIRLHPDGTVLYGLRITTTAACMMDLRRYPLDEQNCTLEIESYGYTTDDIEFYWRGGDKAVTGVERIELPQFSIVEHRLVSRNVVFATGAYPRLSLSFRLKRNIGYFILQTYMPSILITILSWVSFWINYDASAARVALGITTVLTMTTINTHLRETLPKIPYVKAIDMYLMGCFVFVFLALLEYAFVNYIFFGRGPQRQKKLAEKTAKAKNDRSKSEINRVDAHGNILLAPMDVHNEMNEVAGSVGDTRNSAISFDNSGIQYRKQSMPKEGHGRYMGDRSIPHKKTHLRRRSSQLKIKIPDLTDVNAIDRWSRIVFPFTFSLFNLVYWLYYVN
GABAA α3β3γ2, sequence (P18508 39-466): as the sequence (P18508 39-466) above

EC50 (GABAA α3β3γ2): 0.13 µM
EC50 (GABAA α3β2γ2): 0.38 µM
SMILES: CCOC(=O)c1cc(NC(=O)N(c2ccccc2)c2ccccc2)c2c(Cl)cc(Cl)cc2n1 [DCUK-OEt, 5,7-dichloro-4-([diphenylcarbamoyl]amino) quinoline-2-ethyl carboxylate]

Reference: paper doi:10.1101/2020.07.10.197525v1 (biorxiv, 2020)
